Common to all, as to format: functional
Common to all, as to details: read-out: IZ

The test system of assay [1] is Staphylococcus aureus. The assay can be described thus: Antibacterial activity against Staphylococcus aureus at 500 ppm after 1 hr by agar well diffusion method. Background: In agar diffusion tests the substance spreads into inoculated agar from a disc or well.
Assay [2] concerns Escherichia coli. Nature of the assay: Antibacterial activity against Escherichia coli at 750 ppm after 1 hr by agar well diffusion method.
Assay [3] deals with Staphylococcus aureus. The assay can be described thus: Antibacterial activity against Staphylococcus aureus at 250 ppm after 1 hr by agar well diffusion method.
For assay [4], the system named is Staphylococcus aureus. The assay can be described thus: Antibacterial activity against Staphylococcus aureus at 750 ppm after 1 hr by agar well diffusion method.
Assay [5] deals with Escherichia coli. The assay can be described thus: Antibacterial activity against Escherichia coli at 500 ppm after 1 hr by agar well diffusion method.
Assay [6] relates to Escherichia coli. The assay can be described thus: Antibacterial activity against Escherichia coli at 250 ppm after 1 hr by agar well diffusion method.
Assay [7] has as its system Staphylococcus aureus. The assay can be described thus: Antibacterial activity against Staphylococcus aureus at 50 ppm after 1 hr by agar well diffusion method.
For assay [8], the system named is Staphylococcus aureus. Nature of the assay: Antibacterial activity against Staphylococcus aureus at 100 ppm after 1 hr by agar well diffusion method.

In the case of `N#Cc1c(O)nc(N)nc1-c1ccc(O)cc1`, the zone of inhibition at 500 ppm turned out to be 8 mm with Staphylococcus aureus [1] and 6 mm with Escherichia coli [5]. The zone of inhibition at 750 ppm in the assay with Escherichia coli [2] was determined as 10 mm; with Staphylococcus aureus [4], 11 mm. Further, the zone of inhibition at 250 ppm with Staphylococcus aureus [3] came out at 5 mm.

With `N#Cc1c(O)nc(N)nc1-c1ccccc1Cl`, the values for the zone of inhibition at 500 ppm in the assay with Staphylococcus aureus [1] and in the assay with Escherichia coli [5] were 9 mm and 8 mm, respectively. Moreover, the zone of inhibition at 750 ppm worked out at 10 mm in the assay with Escherichia coli [2] and 14 mm in the assay on Staphylococcus aureus [4]. Besides, in the assay on Staphylococcus aureus [3], the zone of inhibition at 250 ppm was 5 mm.

On to `COc1ccc(C2NC(=N)NC(=O)C2C#N)cc1` (stereo unspecified), for which the zone of inhibition at 750 ppm in the assay with Staphylococcus aureus [4] was 5 mm.

With `N#Cc1c(O)nc(N)nc1-c1cccc([N+](=O)[O-])c1`, the zone of inhibition at 500 ppm in the assay on Staphylococcus aureus [1] was 8 mm. Also, in the assay with Staphylococcus aureus [3], the zone of inhibition at 250 ppm stood at 4 mm. Moreover, in the assay on Staphylococcus aureus [4], the zone of inhibition at 750 ppm came to 14 mm.

With `COc1cc(-c2nc(N)nc(O)c2C#N)cc(OC)c1OC`, the zone of inhibition at 500 ppm in the assay with Staphylococcus aureus [1] was 10 mm. In addition, the zone of inhibition at 750 ppm in the assay with Staphylococcus aureus [4] came to 13 mm.

Regarding `CN(C)c1ccc(-c2nc(N)nc(O)c2C#N)cc1`, the zone of inhibition at 500 ppm stood at 9 mm with Staphylococcus aureus [1] and 7 mm with Escherichia coli [5]. In addition, the zone of inhibition at 750 ppm with Escherichia coli [2] and in the assay with Staphylococcus aureus [4] was 11 mm in each case. Besides, the zone of inhibition at 250 ppm with Escherichia coli [6] was found to be 4 mm; with Staphylococcus aureus [3] it was 7 mm.

For the molecule `N#Cc1c(O)nc(N)nc1-c1ccccc1[N+](=O)[O-]`, the zone of inhibition at 500 ppm came out at 12 mm in the assay with Staphylococcus aureus [1] and 5 mm in the assay on Escherichia coli [5]. Moreover, the zone of inhibition at 750 ppm with Escherichia coli [2] amounted to 9 mm; in the assay on Staphylococcus aureus [4], 15 mm. The zone of inhibition at 250 ppm with Escherichia coli [6] is 3 mm.

Take `N#Cc1c(O)nc(N)nc1-c1cccc(Cl)c1`: the zone of inhibition at 750 ppm came to 11 mm with Escherichia coli [2] and 5 mm with Staphylococcus aureus [4]. In the assay on Escherichia coli [6], the zone of inhibition at 250 ppm stood at 4 mm. The zone of inhibition at 500 ppm in the assay with Escherichia coli [5] was found to be 7 mm.

Turning to `N#Cc1c(O)nc(N)nc1-c1ccccc1`, the zone of inhibition at 500 ppm in the assay with Staphylococcus aureus [1] turned out to be 15 mm. In addition, the zone of inhibition at 250 ppm in the assay with Staphylococcus aureus [3] worked out at 15 mm. Besides, the zone of inhibition at 50 ppm in the assay on Staphylococcus aureus [7] worked out at 10 mm. Moreover, in the assay with Staphylococcus aureus [4], the zone of inhibition at 750 ppm worked out at 18 mm. For the same molecule, in the assay with Staphylococcus aureus [8], the zone of inhibition at 100 ppm was determined as 12 mm.

Consider `N#Cc1c(O)nc(N)nc1C/C=C/c1ccccc1`, for which the results for the zone of inhibition at 500 ppm in the assay on Staphylococcus aureus [1] and in the assay with Escherichia coli [5] were 5 mm and 9 mm, respectively. The zone of inhibition at 750 ppm in the assay with Escherichia coli [2] was found to be 12 mm; with Staphylococcus aureus [4], 9 mm. Moreover, the zone of inhibition at 250 ppm in the assay on Escherichia coli [6] turned out to be 7 mm.

The values above are taken from ChEMBL document CHEMBL1158359, “A novel and efficient one step synthesis of 2-amino-5-cyano-6-hydroxy-4-aryl pyrimidines and their anti-bacterial activity” (2009).
